For experiment [1], the target named is T1, serotoninergic 5-HT7 receptor (Homo sapiens, UniProt P34969). The experiment in a line: Cellular functional assay, serotoninergic 5-HT7 receptor (agonism/antagonism). Type of experiment: cell-based. To be noted: for activation at 1 µM: agonist effect, percent of control specific agonist response, compounds tested at 1×10^−6M, read-out: 5-HT7-ag [%]; for inhibition at 1 µM: read-out: 5-HT7-antag. [%]. The protocol: (§1) The compounds were tested at the concentration of 1×10^−6M.
T1 sequence (P34969 whole entry): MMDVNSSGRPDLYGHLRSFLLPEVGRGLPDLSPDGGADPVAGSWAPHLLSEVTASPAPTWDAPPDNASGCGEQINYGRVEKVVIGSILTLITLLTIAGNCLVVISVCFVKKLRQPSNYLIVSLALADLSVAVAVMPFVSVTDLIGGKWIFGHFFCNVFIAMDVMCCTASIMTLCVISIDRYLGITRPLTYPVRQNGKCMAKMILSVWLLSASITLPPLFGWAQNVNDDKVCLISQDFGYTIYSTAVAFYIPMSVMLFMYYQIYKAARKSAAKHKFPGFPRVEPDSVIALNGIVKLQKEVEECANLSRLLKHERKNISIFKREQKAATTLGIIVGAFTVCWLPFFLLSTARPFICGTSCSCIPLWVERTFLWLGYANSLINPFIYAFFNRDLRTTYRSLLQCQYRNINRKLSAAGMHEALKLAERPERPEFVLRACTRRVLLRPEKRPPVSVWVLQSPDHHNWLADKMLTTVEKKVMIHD
(§2) In the Tables ag refers to agonism, and antag to antagonism).

In experiment [2] the target is T2, serotoninergic 5-HT1A receptor (Homo sapiens, UniProt P08908).
T2 sequence (P08908 1-422): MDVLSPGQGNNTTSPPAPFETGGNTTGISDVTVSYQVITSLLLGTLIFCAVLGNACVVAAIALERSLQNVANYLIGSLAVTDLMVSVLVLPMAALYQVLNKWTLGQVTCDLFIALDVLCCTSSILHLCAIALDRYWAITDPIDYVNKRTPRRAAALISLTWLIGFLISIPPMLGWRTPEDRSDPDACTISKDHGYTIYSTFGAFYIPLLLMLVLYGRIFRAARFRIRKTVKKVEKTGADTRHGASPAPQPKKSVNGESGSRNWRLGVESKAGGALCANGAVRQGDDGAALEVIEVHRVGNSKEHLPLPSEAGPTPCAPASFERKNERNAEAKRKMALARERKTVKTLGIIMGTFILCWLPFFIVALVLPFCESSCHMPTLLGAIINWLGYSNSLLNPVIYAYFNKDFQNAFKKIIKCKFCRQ
The experiment in a line: Binding assay 5-HT1A (h), [3H]8-OH-DPAT, HEK-293 cells. More on the design: expressed in transfected cells; host or cells: HEK-293 cells. To be noted: read-out: 5-HT1A. Put shortly: (§3)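 Single-concentration test (1×10^−6 M). Total and non-specific binding were counted by scintillation, and their difference defines specific binding.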

Experiment [3] concerns the target T3, serotoninergic 5-HT6 receptor (Homo sapiens, UniProt P50406). The experiment in a line: Binding assay 5-HT6 (h), [3H]LSD, CHO cells. More on the design: expressed in transfected cells; host or cells: CHO cells. The following applies: read-out: 5-HT6. Put shortly:
as §3

For experiment [4], the target named is T4, serotonine transporter (SERT) receptor (Homo sapiens, UniProt P31645).
T4 construct: expressed in transfected cells; host or cells: CHO cells
T4 sequence (P31645 whole entry): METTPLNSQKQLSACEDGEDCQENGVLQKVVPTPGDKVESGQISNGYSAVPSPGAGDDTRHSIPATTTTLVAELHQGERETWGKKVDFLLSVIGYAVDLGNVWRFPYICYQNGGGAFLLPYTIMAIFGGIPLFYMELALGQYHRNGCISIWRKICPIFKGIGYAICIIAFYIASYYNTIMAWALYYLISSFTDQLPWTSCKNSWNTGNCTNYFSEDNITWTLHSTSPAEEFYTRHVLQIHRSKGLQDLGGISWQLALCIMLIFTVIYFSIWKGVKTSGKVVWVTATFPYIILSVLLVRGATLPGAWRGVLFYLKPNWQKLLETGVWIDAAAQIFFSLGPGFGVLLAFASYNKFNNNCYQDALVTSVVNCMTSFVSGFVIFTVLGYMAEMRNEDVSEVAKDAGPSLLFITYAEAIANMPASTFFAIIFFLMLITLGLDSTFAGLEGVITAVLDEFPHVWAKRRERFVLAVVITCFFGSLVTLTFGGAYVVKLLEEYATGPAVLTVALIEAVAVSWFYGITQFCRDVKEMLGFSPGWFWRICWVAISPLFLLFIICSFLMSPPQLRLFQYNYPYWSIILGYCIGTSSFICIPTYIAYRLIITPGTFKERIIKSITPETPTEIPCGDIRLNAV
The experiment in a line: Binding assay SERT (h), [3H]imipramine, CHO cells. The following applies: read-out: SERT [%]. A digest of the protocol:
as §3

Experiment [5] has as its target T1, serotoninergic 5-HT7 receptor. Kind of experiment: Binding assay 5-HT7 (h), [3H]LSD, CHO cells. More on the design: expressed in transfected cells; host or cells: CHO cells. To be noted: read-out: 5-HT7. A digest of the protocol:
as §3

For experiment [6], the target named is T5, serotoninergic receptor 5-HT2C (Homo sapiens, UniProt P28335).
T5 construct: expressed in transfected cells; host or cells: HEK-293 cells
T5 sequence (P28335 33-458): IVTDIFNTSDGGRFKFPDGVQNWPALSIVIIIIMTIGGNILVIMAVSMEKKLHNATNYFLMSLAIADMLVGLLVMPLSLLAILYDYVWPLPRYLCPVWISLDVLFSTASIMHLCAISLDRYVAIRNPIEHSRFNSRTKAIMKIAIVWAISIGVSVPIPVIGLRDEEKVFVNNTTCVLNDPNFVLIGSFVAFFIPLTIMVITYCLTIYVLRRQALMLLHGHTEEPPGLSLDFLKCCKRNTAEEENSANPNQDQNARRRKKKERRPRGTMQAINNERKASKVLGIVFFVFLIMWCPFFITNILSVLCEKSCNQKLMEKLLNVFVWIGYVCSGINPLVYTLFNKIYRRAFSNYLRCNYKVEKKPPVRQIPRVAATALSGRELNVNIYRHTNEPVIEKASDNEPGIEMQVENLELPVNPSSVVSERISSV
Kind of experiment: Binding assay 5-HT2C (h), [3H]mesulergine, HEK-293 cells. The following applies: read-out: 5-HT2C [%]. Put shortly: as §3

The test system of experiment [7] is sigma σ receptor. Kind of experiment: Binding assay σ (non-selective), [3H]DTG, rat cerebral cortex. To be noted: percent inhibition of control specific binding; compounds tested at 1×10^−6 M. A digest of the protocol: as §3
Experiment [8] concerns adrenergic α1 receptor. Kind of experiment: Binding assay α1 (non-selective), [3H]prazosin, rat cerebral cortex. To be noted: percent inhibition of control specific binding; compounds tested at 1×10^−6 M. Put shortly: as §3
Experiment [9] has as its target T3, serotoninergic 5-HT6 receptor. The experiment in a line: Cellular functional assay, serotoninergic 5-HT6 receptor (agonism/antagonism). The class given is cell-based. To be noted: for activation at 1 µM: agonist effect, percent of control specific agonist response, compounds tested at 1×10^−6M, read-out: 5-HT6-ag [%]; for inhibition at 1 µM: read-out: 5-HT6-antag. [%]. The protocol: as §1, §2

Experiment [10] addresses T6, dopaminergic D2 receptor (Homo sapiens, UniProt P14416). Kind of experiment: Binding assay D2S (h), [3H]methyl-spiperone, HEK-293 cells. Also on record: expressed in transfected cells; host or cells: HEK-293 cells. To be noted: read-out: D2 [%]. A digest of the protocol:
as §3
Target sequence in this assay (P14416 1-414 isoform P14416-2): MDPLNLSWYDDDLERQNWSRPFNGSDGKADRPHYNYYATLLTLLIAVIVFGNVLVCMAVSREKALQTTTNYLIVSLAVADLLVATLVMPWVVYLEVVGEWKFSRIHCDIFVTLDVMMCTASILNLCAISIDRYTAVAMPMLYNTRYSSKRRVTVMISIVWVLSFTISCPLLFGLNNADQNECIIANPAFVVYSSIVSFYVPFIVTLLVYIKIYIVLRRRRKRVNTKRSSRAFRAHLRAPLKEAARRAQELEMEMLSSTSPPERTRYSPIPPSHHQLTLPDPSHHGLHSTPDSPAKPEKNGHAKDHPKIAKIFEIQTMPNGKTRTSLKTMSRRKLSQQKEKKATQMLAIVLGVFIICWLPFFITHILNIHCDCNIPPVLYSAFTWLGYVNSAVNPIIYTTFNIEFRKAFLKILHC

Experiment [11] has as its target T7, adrenergic α2C receptor (Homo sapiens, UniProt P18825).
T7 sequence (P18825 1-462): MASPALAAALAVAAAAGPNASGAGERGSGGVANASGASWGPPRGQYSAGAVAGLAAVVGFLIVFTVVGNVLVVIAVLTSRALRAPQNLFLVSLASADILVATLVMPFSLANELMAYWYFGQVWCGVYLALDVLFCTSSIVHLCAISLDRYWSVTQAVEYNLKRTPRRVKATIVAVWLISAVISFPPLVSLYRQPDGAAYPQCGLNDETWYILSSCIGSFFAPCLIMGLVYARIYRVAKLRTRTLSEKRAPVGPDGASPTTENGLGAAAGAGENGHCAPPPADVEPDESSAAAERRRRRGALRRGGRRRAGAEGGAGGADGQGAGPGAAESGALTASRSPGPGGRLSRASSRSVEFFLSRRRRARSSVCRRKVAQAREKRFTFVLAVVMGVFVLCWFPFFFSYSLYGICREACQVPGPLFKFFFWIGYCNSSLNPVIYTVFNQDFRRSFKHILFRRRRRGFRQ
The experiment in a line: Binding assay α2C (h), [3H]RX 821002, CHO cells. Also on record: expressed in transfected cells; host or cells: CHO cells. The following applies: read-out: α2C [%]. A digest of the protocol:
as §3

The target in experiment [12] is T8, muscarinic M3 receptor (Homo sapiens, UniProt P20309).
T8 construct: expressed in transfected cells; host or cells: CHO cells
T8 sequence (P20309 whole entry): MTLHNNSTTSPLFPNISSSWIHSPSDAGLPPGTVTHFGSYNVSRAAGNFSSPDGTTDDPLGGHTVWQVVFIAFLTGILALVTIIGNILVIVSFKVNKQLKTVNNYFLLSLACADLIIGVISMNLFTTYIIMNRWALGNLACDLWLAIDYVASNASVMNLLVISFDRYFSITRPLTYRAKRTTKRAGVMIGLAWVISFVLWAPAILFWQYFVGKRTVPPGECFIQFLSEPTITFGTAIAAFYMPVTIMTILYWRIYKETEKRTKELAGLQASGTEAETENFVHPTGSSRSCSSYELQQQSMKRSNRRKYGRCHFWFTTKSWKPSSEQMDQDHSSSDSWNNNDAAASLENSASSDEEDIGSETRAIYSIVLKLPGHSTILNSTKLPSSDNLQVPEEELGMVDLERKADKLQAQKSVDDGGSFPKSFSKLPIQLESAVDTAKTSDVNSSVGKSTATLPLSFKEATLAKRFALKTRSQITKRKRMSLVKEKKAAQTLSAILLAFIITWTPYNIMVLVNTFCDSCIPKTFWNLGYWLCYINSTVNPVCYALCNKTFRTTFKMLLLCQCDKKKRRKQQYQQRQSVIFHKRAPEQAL
The experiment in a line: Binding assay M3 (h), [3H]4-DAMP, CHO cells. The following applies: read-out: M3 [%]. A digest of the protocol:
as §3

The target of experiment [13] is serotoninergic 5-HT2A receptor (Homo sapiens, UniProt P28223). The experiment in a line: Binding assay 5-HT2A (h), [3H]ketanserin, HEK-293 cells. More on the design: expressed in transfected cells; host or cells: HEK-293 cells. The following applies: read-out: 5-HT2A. A digest of the protocol:
as §3

In experiment [14] the target is dopaminergic D3 receptor (Homo sapiens, UniProt P35462). The experiment in a line: Binding assay D3 (h), [3H]methyl-spiperone, CHO cells. Also on record: expressed in transfected cells; host or cells: CHO cells. To be noted: read-out: D3 [%]. Put shortly: as §3
Chain of dopaminergic D3 receptor (P35462 whole entry): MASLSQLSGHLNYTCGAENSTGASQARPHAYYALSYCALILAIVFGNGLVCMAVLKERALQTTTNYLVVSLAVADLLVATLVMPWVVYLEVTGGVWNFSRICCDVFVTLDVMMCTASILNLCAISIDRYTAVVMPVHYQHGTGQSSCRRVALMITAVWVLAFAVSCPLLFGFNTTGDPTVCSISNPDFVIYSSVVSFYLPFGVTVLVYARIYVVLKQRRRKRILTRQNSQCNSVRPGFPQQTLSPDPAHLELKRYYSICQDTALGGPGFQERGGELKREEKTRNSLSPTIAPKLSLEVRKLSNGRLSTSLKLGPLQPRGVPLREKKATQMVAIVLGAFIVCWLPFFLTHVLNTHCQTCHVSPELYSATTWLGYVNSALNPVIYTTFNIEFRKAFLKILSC
Experiment [15] concerns the target histaminergic H1 receptor (Homo sapiens, UniProt P35367). Kind of experiment: Binding assay H1 (h), [3H]pyrilamine, HEK-293 cells. Also on record: expressed in transfected cells; host or cells: HEK-293 cells. The following applies: read-out: H1 [%]. Put shortly:
as §3

For experiment [16], the target named is T6, dopaminergic D2 receptor. Kind of experiment: Cellular functional assay, dopaminergic D2 receptor (agonism/antagonism). The class given is cell-based. The following applies: HEK293. The method, then: as §1, §2
Target sequence in this assay (P14416 whole entry): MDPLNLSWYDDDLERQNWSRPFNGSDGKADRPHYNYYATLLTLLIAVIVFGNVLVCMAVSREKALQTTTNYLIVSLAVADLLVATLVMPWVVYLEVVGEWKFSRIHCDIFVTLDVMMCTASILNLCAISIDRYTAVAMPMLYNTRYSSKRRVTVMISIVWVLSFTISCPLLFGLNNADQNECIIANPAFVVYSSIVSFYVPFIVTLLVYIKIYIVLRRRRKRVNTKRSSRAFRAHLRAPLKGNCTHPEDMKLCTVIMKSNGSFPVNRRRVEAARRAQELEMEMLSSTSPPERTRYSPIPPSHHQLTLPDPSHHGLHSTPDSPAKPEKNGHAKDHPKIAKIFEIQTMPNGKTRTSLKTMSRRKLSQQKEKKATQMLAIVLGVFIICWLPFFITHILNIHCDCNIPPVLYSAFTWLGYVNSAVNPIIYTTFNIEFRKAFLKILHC

Chain of serotoninergic 5-HT2A receptor (P28223 whole entry): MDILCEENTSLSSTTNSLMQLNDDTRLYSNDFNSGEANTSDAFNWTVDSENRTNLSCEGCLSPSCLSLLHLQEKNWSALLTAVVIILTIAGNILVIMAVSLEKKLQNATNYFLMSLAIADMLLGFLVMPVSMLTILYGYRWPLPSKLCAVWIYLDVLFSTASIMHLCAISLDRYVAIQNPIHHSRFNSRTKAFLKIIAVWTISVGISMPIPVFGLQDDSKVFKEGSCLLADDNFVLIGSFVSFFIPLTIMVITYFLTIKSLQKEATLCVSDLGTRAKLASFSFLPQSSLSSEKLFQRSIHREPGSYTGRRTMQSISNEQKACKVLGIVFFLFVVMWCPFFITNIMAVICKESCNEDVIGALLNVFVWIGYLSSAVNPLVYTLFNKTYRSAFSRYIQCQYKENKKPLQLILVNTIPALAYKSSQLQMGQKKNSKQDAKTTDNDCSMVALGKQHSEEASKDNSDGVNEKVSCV
T3 sequence (P50406 whole entry): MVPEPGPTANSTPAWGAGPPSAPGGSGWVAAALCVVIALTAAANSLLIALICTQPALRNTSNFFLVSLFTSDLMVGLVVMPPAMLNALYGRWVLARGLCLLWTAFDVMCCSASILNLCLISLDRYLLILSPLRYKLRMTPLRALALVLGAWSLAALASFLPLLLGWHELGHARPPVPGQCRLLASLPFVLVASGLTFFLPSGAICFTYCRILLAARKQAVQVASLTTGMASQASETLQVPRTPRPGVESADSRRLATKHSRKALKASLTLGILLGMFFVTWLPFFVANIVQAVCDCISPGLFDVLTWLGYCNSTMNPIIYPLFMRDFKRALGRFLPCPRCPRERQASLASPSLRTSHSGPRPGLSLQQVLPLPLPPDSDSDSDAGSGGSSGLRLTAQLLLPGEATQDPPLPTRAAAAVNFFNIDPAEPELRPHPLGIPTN
Chain of histaminergic H1 receptor (P35367 whole entry): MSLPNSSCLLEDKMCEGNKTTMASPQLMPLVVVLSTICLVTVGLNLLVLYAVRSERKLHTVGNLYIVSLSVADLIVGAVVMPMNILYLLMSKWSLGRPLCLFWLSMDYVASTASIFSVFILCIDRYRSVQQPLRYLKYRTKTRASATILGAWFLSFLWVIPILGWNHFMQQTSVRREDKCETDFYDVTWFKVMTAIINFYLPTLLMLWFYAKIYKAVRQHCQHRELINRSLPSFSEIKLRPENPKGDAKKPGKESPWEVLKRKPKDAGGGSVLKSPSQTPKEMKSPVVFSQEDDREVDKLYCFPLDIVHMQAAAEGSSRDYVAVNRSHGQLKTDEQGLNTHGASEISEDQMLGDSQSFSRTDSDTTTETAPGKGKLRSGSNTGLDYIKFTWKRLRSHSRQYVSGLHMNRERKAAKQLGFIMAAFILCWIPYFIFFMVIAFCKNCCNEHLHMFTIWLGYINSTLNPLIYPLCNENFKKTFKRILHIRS

Consider `O=S(=O)(NCCCN1CCC(c2noc3cc(F)ccc23)CC1)c1cccc2ccccc12` [Compound 20, N-[3-[4-(6-Fluoro-1,2-benzoxazol-3-yl)piperidin-1-yl]propyl]naphthalene-1-sulphonamide], for which the activation at 1 µM in experiment [1] was -1%; in experiment [9], -2%. Further, the inhibition at 1 µM stood at 101% in experiment [1]; 71% in [2]; 85% in experiment [3]; 85% in experiment [4]; 101% in [5]; 75% in experiment [6]. The inhibition at 1 µM was 23% in experiment [9]; 98% in experiment [10]; 99% in experiment [11]; -9% in experiment [12]; 100% in experiment [13]; 96% in experiment [14]. The inhibition at 1 µM in experiment [15] stood at 78%. Further, in experiment [7], the “σ [%]” value turned out to be 81%. Moreover, the “α1 [%]” value in experiment [8] worked out at 99%.
Take `O=S(=O)(NCCCN1CCC(c2noc3cc(F)ccc23)CC1)c1ccc2ccccc2c1` [Compound 21, N-[3-[4-(6-Fluoro-1,2-benzoxazol-3-yl)piperidin-1-yl]propyl]naphthalene-2-sulphonamide]: the results for the activation at 1 µM in experiment [1] and in experiment [9] were 0% and -2%, respectively. Moreover, the inhibition at 1 µM turned out to be 98% in experiment [1]; 77% in experiment [2]; 93% in [3]; 46% in experiment [4]; 99% in experiment [5]; 87% in experiment [6]. For the same compound, the inhibition at 1 µM was 39% in experiment [9]; 99% in experiment [10]; 98% in [11]; 2% in experiment [12]; 100% in experiment [13]; 97% in experiment [14]. Also, in experiment [15], the inhibition at 1 µM amounted to 90%. Moreover, in experiment [7], the “σ [%]” value is on record as 82%. Also, the “α1 [%]” value in experiment [8] came out at 97%.
As for `O=S(=O)(NCCN1CCC(c2noc3cc(F)ccc23)CC1)c1cccc2ccccc12` [Compound 23, N-[2-[4-(6-Fluoro-1,2-benzoxazol-3-yl)piperidin-1-yl]ethyl]naphthalene-1-sulphonamide], the activation at 1 µM in [1] and in experiment [9] was 0% in each case. For the same compound, the inhibition at 1 µM turned out to be 88% in experiment [1]; 85% in experiment [2]; 69% in experiment [3]; 68% in experiment [4]; 96% in [5]; 44% in [6]. In addition, the inhibition at 1 µM is 1% in experiment [9]; 97% in experiment [10]; 99% in [11]; -2% in [12]; 100% in [13]; 93% in experiment [14]. Also, in experiment [15], the inhibition at 1 µM stood at 67%. Further, the “σ [%]” value in experiment [7] is listed as 82%. Besides, the “α1 [%]” value in [8] is listed as 97%.
Take `O=S(=O)(NCCN1CCC(c2noc3cc(F)ccc23)CC1)c1ccc2ccccc2c1` [Compound 24, N-[2-[4-(6-Fluoro-1,2-benzoxazol-3-yl)piperidin-1-yl]ethyl]naphthalene-2-sulphonamide]: the activation at 1 µM in [1] was 0%; in experiment [9], 2%. Further, the inhibition at 1 µM was 99% in [1]; 80% in [2]; 76% in experiment [3]; 53% in [4]; 95% in experiment [5]; 65% in experiment [6]. Further, the inhibition at 1 µM was determined as 9% in experiment [9]; 99% in experiment [10]; 99% in experiment [11]; 10% in [12]; 100% in [13]; 98% in [14]. Also, the inhibition at 1 µM in [15] is 56%. The “σ [%]” value in experiment [7] was determined as 80%. Moreover, the “α1 [%]” value in experiment [8] stood at 97%.
As for `Cc1cccc(S(=O)(=O)NCCN2CCC(c3noc4cc(F)ccc34)CC2)c1` [Compound 25, N-[2-[4-(6-Fluoro-1,2-benzoxazol-3-yl)piperidin-1-yl]ethyl]-3-methylbenzenesulphonamide], the values for the activation at 1 µM in experiment [1] and in [9] were -1% and 0%, respectively. Moreover, the inhibition at 1 µM is 97% in experiment [1]; 92% in experiment [2]; 71% in experiment [3]; 20% in experiment [4]; 98% in experiment [5]; 32% in experiment [6]. For the same compound, the inhibition at 1 µM came out at 6% in [9]; 96% in experiment [10]; 98% in [11]; 6% in experiment [12]; 100% in [13]; 94% in experiment [14]. Also, the inhibition at 1 µM in experiment [15] was determined as 62%. In addition, in experiment [7], the “σ [%]” value worked out at 76%. The “α1 [%]” value in experiment [8] was found to be 98%.
On to `O=S(=O)(NCCCCN1CCN(c2cccc3[nH]ccc23)CC1)c1csc2ccccc12` [Compound 32, N-{4-[4-(1H-Indol-4-yl)piperazin-1-yl]butyl}-1-benzothiophene-3-sulphonamide], for which the results for the inhibition at 1 µM in experiment [3], in [16] (read-out: D2-antag. [%]) and in experiment [10] were 23%, 89% and 101%, respectively. In experiment [16] (agonist effect, percent of control specific agonist response (3 μM dopamine for control), 1×10^−6 M, D2S (h), HEK-293 cells, read-out: D2-ag [%]), the activation at 1 µM was 35%.

(Values after US8822517B2, “Arylosulfonamides for the treatment of CNS diseases” (Adamed SP. Z O.O., priority 2010, dated 2014).)
